Test [1] concerns patients with familial hypercholesterolemia (FH). As to the kind of experiment: Open-label escalating-dose study (300, 600, 900 mg) in familial hypercholesterolemia patients on stable lipid-lowering therapy: LDL-C. The note with it: Patient 1. The class given is in vivo, human. The procedure:
A study was performed to evaluate the efficacy of film-coated Tablet D in treating patients with familial hypercholesterolemia (FH) and who are on stable, lipid-lowering therapy. Male and female patients ≥17 years of age who had been diagnosed with FH by genetic confirmation or a clinical diagnosis based on either (1) a history of an untreated LDL-C concentration ≥500 mg/dl (12.92 mmol/L) together with either appearance of xanthoma before 10 years of age, or evidence of familial hypercholesterolemia in both parents or (2) LDL-C >300 mg/dl (7.76 mmol/L) on maximally tolerated lipid-lowering drug therapy were enrolled in the study.
The study was a 3-period, 3-treatment study using successively escalating doses of 300 mg, 600 mg, and 900 mg gemcabene calcium salt hydrate Crystal Form 1 (PSD90=52 μm). All patients were on each of the successive doses for 4 weeks at a time. Patients remained on their stable, lipid-lowering therapy throughout the study.
Each patient received one 300 mg gemcabene calcium salt hydrate Crystal Form 1 tablet (film-coated Tablet D) orally QD (alternatively written as q.d.; meaning “once a day”) for 4 weeks. The same patients then received 600 mg gemcabene calcium salt hydrate Crystal Form 1 orally QD for 4 weeks. The 600 mg dose consisted of two 300-mg tablets (film-coated Tablet D×2). […]
LDL-C values were measured after the patient had been administered film-coated Tablet D for 2 weeks for each dosing level and on the last day of each dose. For each escalated dose, percent change from baseline in LDL-C was calculated using the baseline LDL-C value and the final LDL-C value measured for each dose. […]
This was an open-label, dose-finding, 3-period, 3-treatment study using successively escalating doses of 300 mg, 600 mg, and 900 mg gemcabene calcium salt hydrate Crystal Form 1 having PSD90 of 52 μm in patients clinically diagnosed with familial hypercholesterolemia (FH). […] Plasma from these samples were analyzed for gemcabene concentrations and the data used for PK analysis. […]

Test [2] deals with patients with hypercholesterolemia on stable statin therapy. As to the kind of experiment: 12-week placebo-controlled study of 600 mg QD in hypercholesterolemia patients on moderate and high-intensity statins: atherogenic and inflammatory biomarkers. The class given is in vivo, human. The procedure:
High-risk patients including some, but not all those with heterozygous familial hypercholesterolemia (HeFH) or atherosclerotic cardiovascular disease (ASCVD) on appropriate diet and stable statin therapy for at least 12 weeks and LDL-C ≥100 mg/dL (2.59 mmol/L) and triglycerides <500 mg/dL (5.65 mmol/L) were randomized into a 12-week, placebo-controlled, parallel-group, double-blind study to assess the efficacy of gemcabene calcium salt hydrate Crystal Form 1 (PSD90=52 μm) 600 mg (300-mg film-coated Tablet D×2) QD on LDL-C and other lipoproteins and hsCRP (high-sensitivity C-reactive protein). Safety and tolerability were also evaluated. The patients were stratified by high- or moderate-intensity statin therapy, with or without ezetimibe, with a target of 52 patients (26 patients on 600 mg gemcabene calcium salt hydrate Crystal Form 1 as administered by 2×film-coated Tablet D and 26 patients on placebo (“placebo”)) in each stratum. […] Mean baseline LDL-C for all patients was approximately 134 mg/dL (3.48 mmol/L) with most patients in the high-intensity statin stratum on atorvastatin and most patients in the moderate-intensity stratum on either simvastatin or atorvastatin.
The aim of this study was to characterize gemcabene calcium salt hydrate Crystal Form 1's safety and tolerability and to determine gemcabene calcium salt hydrate Crystal Form 1's additive impact to statins on serum biomarker including atherogenic biomarkers (LDL-C, non-HDL-C, ApoB, ApoE, and triglyceride (TG)) and inflammatory biomarkers (hsCRP, serum amyloid A (SAA)).
Fifty patients (24 patients on 600 mg (Tablet D×2); 26 placebo) on baseline high-intensity (HI) statins received atorvastatin 40 mg or 80 mg QD; or rosuvastatin 20 mg or 40 mg QD. Fifty-five patients (29 patients on 600 mg GEM; 26 placebo) on baseline moderate-intensity (MI) statins received atorvastatin 10 mg or 20 mg QD; rosuvastatin 5 mg or 10 mg QD; or simvastatin 20 or 40 mg QD. Baseline LDL-C was 127 mg/dL and 134 mg/dL in the MI statin and HI statin stratum, respectively.
Within the study population, an analysis was performed in a subpopulation of patients having mixed dyslipidemia (LDL-C ≥100 mg/dL and triglycerides ≥200 and <500 mg/dL). Eighteen patients (10 (film-coated Tablet D×2) patients and 8 placebo patients) having a baseline mean LDL-C level of 142 mg/dL, baseline mean triglyceride level of 247 mg/dL and BMI of 34 kg/m^2 were analyzed (FIG. 48). Although not measured in the subpopulation of this Example, some cardiometabolic patients could have elevated sulphatase-2 (Sulf-2) levels, which are believed to cause reduced Syndecan-1 (also known as “remnant receptor”)-mediated clearance of atherogenic remnant lipoproteins. Without being bound by theory, the data shown in FIG. 48 support the inventors' belief that administration of film-coated Tablet D, which comprises a compound of the invention, rescues remnant receptor activity.

Setting [3] is: patients with mixed dyslipidemia, 600 mg QD on statins (FIG. 48).

`CC(C)(CCCCOCCCCC(C)(C)C(=O)O)C(=O)O.[Ca]` [6-(5-Carboxy-5-methyl-hexyloxy)-2,2-dimethylhexanoic acid calcium]: the “LDL-C reduction compared to baseline” value in test [1] (300 mg oral QD, 4 weeks) is recorded as 55.2%. The “LDL-C reduction compared to baseline” value in test [1] (600 mg oral QD, 8 weeks) came to 49.8%. Besides, the “LDL-C reduction compared to baseline” value in test [1] (900 mg oral QD, 12 weeks) is given as 54.5%. In addition, in test [2] (hypercholesterolemia patients on MI and HI statins, 600 mg QD, 12 weeks), the “atherogenic and inflammatory markers” value was “significant reductions”. Also, in test [2] (setting [3]), the “reduction in ApoB” value was found to be 26%, the “reduction in ApoE” value is on record as 34%, the “reduction in LDL-C” value is 23% and the “reduction in TG” value was found to be 33%. In addition, the “reduction in non-HDL-C” value in test [2] (setting [3]) came to 19%.

The record behind these values is patent US20200253877A1, “GEMCABENE, PHARMACEUTICALLY ACCEPTABLE SALTS THEREOF, COMPOSITIONS THEREOF AND METHODS OF USE THEREFOR” (NEUROBO PHARMACEUTICALS, INC., priority 2018, published 2020).
